The subject of one data set is VCAM-1. As to the kind of experiment: In Vitro VCAM-1 Assay (ELISA of VCAM-1 on TNF-α stimulated endothelial cells). The class given is cell-based. To be noted: Endothelial cell; primary human aortic (HAEC) or pulmonary (HPAEC) endothelial cells, TNF-α (1 ng/ml), approximately 16 hours. The procedure: Cell Culture and compound dosing: Cultured primary human aortic (HAEC) or pulmonary (HPAEC) endothelial cells were obtained from Clonetics, Inc., and were used below passage 9. Cells were seeded in 96 well plates such that they would reach 90-95% confluency by the following day. On the following day the cells were stimulated with TNF-α (1 ng/ml) in the presence or absence of compounds dissolved in DMSO such that the final concentration of DMSO is 0.25% or less. To establish a dose curve for each compound, four concentrations in 2- to 5-fold increments were used. Cells were exposed to TNF-α and compounds for approximately 16 hours. The next day the cells were examined under microscope to score for visual signs of toxicity or cell stress.
Following 16 hr exposure to TNF-α and compound the media was discarded and the cells were washed once with Hanks Balanced Salt Solution (HBSS)/Phosphate buffered saline (PBS) (1:1). Primary antibodies against VCAM-1 (0.25 μg/ml in HBSS/PBS+5% FBS) were added and incubated for 30-60 minutes at 37° C. Cells were washed with HBSS/PBS three times, and secondary antibody Horse Radish Peroxidase (HRP)-conjugated goat anti-mouse IgG (1:500 in HBSS/PBS+5% FBS) were added and incubated for 30 minutes at 37° C. Cells were washed with HBSS/PBS four time and TMB substrate were added and incubated at room temperature in the dark until there was adequate development of blue color. The length of time of incubation was typically 5-15 minutes. 2N sulfuric acid was added to stop the color development and the data was collected by reading the absorbance on a BioRad ELISA plate reader at OD 450 nm. The results are expressed as IC50 values (the concentration (micromolar) of compound required to inhibit 50% of the maximal response of the control sample stimulated by TNF-α only).
In general terms: In an ELISA, binding on a coated surface is turned into a signal by an enzyme label.

pIC50: −log10 of the molar value. Some results are limits rather than exact numbers.

Broadly, the pIC50 is −log10 of the IC50, conventionally taken in molar units. A lower pIC50 goes with a large IC50. As usually defined, the melting point is the temperature, or range, at which the solid turns liquid. In the case of `C=C(C(=O)c1ccc(F)cc1)c1cc(-c2cccs2)ccc1OC` [Example 13, 1-(4-Fluoro-phenyl)-2-(2-methoxy-5-thien-2-yl-phenyl)-propenone], the melting point was in the range of 116 to 121 °C. In the data set on VCAM-1, the pIC50 is greater than 5.52.

Regarding `C=C(C(=O)c1c(OC)ccc(-c2cc3ccccc3s2)c1OC)c1cccc(OC(C)(C)C(=O)O)c1` [Example 45, 2-{3-[1-(3-Benzo[b]thien-2-yl-2,6-dimethoxy-benzoyl)-vinyl]-phenoxy}-2-methyl-propionic acid], the melting point was in the range of 135 to 137 °C. Besides, the pIC50 in the data set on VCAM-1 was greater than 6.00.

`C=C(C(=O)c1ccc([N+](=O)[O-])cc1)c1cc(-c2cccs2)ccc1OC` [Example 18, 2-(2-Methoxy-5-thien-2-yl-phenyl)-1-(4-nitro-phenyl)-propenone] returned a melting point of 160 to 162 °C. This compound also had a pIC50 in the data set on VCAM-1 greater than 5.52.

In turn, `C=C(C(=O)c1ccc(C(=O)O)cc1)c1c(OC)cc(-c2cccs2)cc1OC` [Example 6] yielded a melting point greater than 250 °C. The compound also showed a pIC50 in the data set on VCAM-1 greater than 6.00.

Take `C=C(C(=O)c1ccc(NC(=O)C(C)C)cc1)c1cc(-c2cccs2)ccc1OC` [Example 21, N-{4-[2-(2-Methoxy-5-thien-2-yl-phenyl)-acryloyl]-phenyl}-isobutyramide]: the melting point was in the range of 155 to 158 °C. Also, the pIC50 in the data set with VCAM-1 was greater than 6.00.

For the compound `C=C(C(=O)c1c(OC)ccc(-c2cccs2)c1OC)c1c(F)cccc1C(F)(F)F` [Example 64, 1-(2,6-Dimethoxy-3-thien-2-yl-phenyl)-2-(2-fluoro-6-trifluoromethyl-phenyl)-propenone], the melting point lay in the range of 76 to 78 °C. Also, in the data set on VCAM-1, the pIC50 is less than 5.00.

On to `C=C(C(=O)c1c(OC)ccc(-c2cccs2)c1OC)c1ccc(C(F)(F)F)cc1` [Example 40, 1-(2,6-Dimethoxy-3-thien-2-yl-phenyl)-2-(4-trifluoromethyl-phenyl)-propenone], for which the melting point lay within 102 to 105 °C. In addition, the pIC50 with VCAM-1 was greater than 6.00.

`C=C(C(=O)c1ccc(NC(=O)c2cccn2C)cc1)c1cc(-c2cccs2)ccc1OC` [Example 28, 1-Methyl-1H-pyrrole-2-carboxylic acid {4-[2-(2-methoxy-5-thien-2-yl-phenyl)-acryloyl]-phenyl}-amide]: the melting point lay in the range of 165 to 168 °C. Further, the pIC50 in the data set with VCAM-1 is greater than 6.00.

With `C=C(C(=O)c1ccc(C(=O)O)cc1)c1cc(-c2cccs2)ccc1OCC(=O)N1CCOCC1` [Example 60], the melting point was 206 to 207 °C. In the data set on VCAM-1, this compound showed a pIC50 of less than 5.00.

Consider `C=C(C(=O)c1ccc(C(=O)O)cc1)c1cc(-c2cnc3ccccc3c2)ccc1OC` [Example 2, 4-[2-(2-Methoxy-5-quinolin-3-yl-phenyl)-acryloyl]-benzoic acid], for which the melting point was 232 °C (dec.). The compound also had a pIC50 in the data set with VCAM-1 greater than 6.00.

For the compound `C=C(C(=O)c1c(C)cccc1C)c1ccc(C(=O)O)cc1-c1cccs1` [Example 33, 4-[1-(2,6-Dimethyl-benzoyl)-vinyl]-3-thien-2-yl-benzoic acid], the melting point lay within 186.5 to 188 °C. The same compound had a pIC50 with VCAM-1 greater than 5.52.

Compound `C=C(C(=O)c1cc(-c2cccs2)ccc1OC)c1ccc(C#N)cc1` [Example 53, 4-[1-(2-Methoxy-5-thien-2-yl-benzoyl)-vinyl]-benzonitrile] had a melting point of 86 to 88 °C. In the data set on VCAM-1, the pIC50 is greater than 5.52.

As to `C=C(C(=O)c1ccc(C(=O)O)cc1)c1cc(-c2cccs2)c(OC)cc1OC` [Example 55, 4-[2-(2,4-Dimethoxy-5-thien-2-yl-phenyl)-acryloyl]-benzoic acid], the melting point is 196 to 198 °C. In addition, in the data set with VCAM-1, the pIC50 was greater than 5.52.

The compound `C=C(C(=O)c1ccc(C(=O)OC)cc1)c1cc(-c2cccs2)ccc1OC` [Example 9, 4-[2-(2-Methoxy-5-thien-2-yl-phenyl)-acryloyl]-benzoic acid methyl ester] came in with a melting point of 126 to 128 °C. The compound further had a pIC50 in the data set on VCAM-1 greater than 6.00.

In turn, `C=C(C(=O)c1ccc(C(=O)OC)cc1)c1cc(OC)c(OC)c(-c2cccs2)c1` [Example 48, 4-[2-(3,4-Dimethoxy-5-thien-2-yl-phenyl)-acryloyl]-benzoic acid methyl ester] had a melting point of 102 to 103 °C. In the data set on VCAM-1, this compound gave a pIC50 greater than 5.00.

Regarding `C=C(C(=O)c1ccc(NS(=O)(=O)c2c(C)noc2C)cc1)c1cc(-c2cccs2)ccc1OC` [Example 26, 3,5-Dimethyl-isoxazole-4-sulfonic acid {4-[2-(2-methoxy-5-thien-2-yl-phenyl)-acryloyl]-phenyl}-amide], the melting point was 176 to 179 °C. The compound also had a pIC50 in the data set on VCAM-1 greater than 5.52.

`C=C(C(=O)c1ccc(C(=O)O)cc1)c1cc(-c2cccn2C(=O)OC(C)(C)C)ccc1OC` [Example 3, 2-{3-[1-(4-Carboxy-benzoyl)-vinyl]-4-methoxy-phenyl}-pyrrole-1-carboxylic acid tert-butyl ester]: the melting point was 90 °C (dec.). The compound further showed a pIC50 in the data set with VCAM-1 greater than 5.52.

As for `C=C(C(=O)c1ccc(C(C)(C)C)cc1)c1cc(-c2cccs2)ccc1OC` [Example 57, 1-(4-tert-Butyl-phenyl)-2-(2-methoxy-5-thien-2-yl-phenyl)-propenone], the melting point lay within 130 to 132 °C. Moreover, in the data set with VCAM-1, the pIC50 was greater than 5.52.

Compound `C=C(C(=O)c1ccc(C(=O)N2CCC(O)CC2)cc1)c1cc(-c2cccs2)ccc1OC` [Example 11, 1-[4-(4-Hydroxy-piperidine-1-carbonyl)-phenyl]-2-(2-methoxy-5-thien-2-yl-phenyl)-propenone] gave a melting point of 197 to 199 °C. The pIC50 with VCAM-1 is greater than 6.00.

The compound `C=C(C(=O)c1c(OC)ccc(-c2cccs2)c1OC)c1ccc([N+](=O)[O-])cc1` [Example 41, 1-(2,6-Dimethoxy-3-thien-2-yl-phenyl)-2-(4-nitrophenyl)-propenone] showed a melting point of 114 to 118 °C. The compound further showed a pIC50 in the data set with VCAM-1 greater than 6.00.

`C=C(C(=O)c1c(OC)cccc1OC)c1ccccc1-c1cccs1` [Example 43, 1-(2,6-Dimethoxy-phenyl)-2-(2-thien-2-yl-phenyl)-propenone] came in with a melting point of 70 to 73 °C. Further, in the data set with VCAM-1, the pIC50 is greater than 5.52.

`C=C(C(=O)c1c(OC)cccc1OC)c1ccc(C(=O)O)cc1-c1cccs1` [Example 36, 4-[1-(2,6-Dimethoxy-benzoyl)-vinyl]-3-thien-2-yl-benzoic acid] showed a melting point of 192 to 195 °C. In the data set with VCAM-1, this compound had a pIC50 greater than 5.52.

For the compound `C=C(C(=O)c1ccc(Nc2ncccn2)cc1)c1cc(-c2cccs2)ccc1OC` [Example 22, 2-(2-Methoxy-5-thien-2-yl-phenyl)-1-[4-(pyrimidin-2-ylamino)-phenyl]-propenone], the melting point was 154 to 155 °C. The same compound had a pIC50 with VCAM-1 greater than 6.00.

Consider `C=C(C(=O)c1ccc(OC)c(-c2cccs2)c1)c1ccc(C(=O)O)cc1` [Example 15, 4-[1-(4-Methoxy-3-thien-2-yl-benzoyl)-vinyl]-benzoic acid], for which the melting point was 204 to 205 °C. Further, in the data set on VCAM-1, the pIC50 is greater than 5.52.

`C=C(C(=O)c1ccc(N2CCCC2)cc1)c1cc(-c2cccs2)ccc1OC` [Example 14, 2-(2-Methoxy-5-thien-2-yl-phenyl)-1-(4-pyrrolidin-1-yl-phenyl)-propenone] came in with a melting point of 187 to 190 °C. The pIC50 in the data set with VCAM-1 is greater than 5.52.

`C=C(C(=O)c1ccc(F)cc1)c1cc(-c2cc3ccccc3s2)c(OC)cc1OC` [Example 51, 2-(5-Benzo[b]thien-2-yl-2,4-dimethoxy-phenyl)-1-(4-fluoro-phenyl)-propenone] yielded a melting point of 142 to 144 °C. In the data set on VCAM-1, the pIC50 is greater than 5.52.

`C=C(C(=O)c1ccc(C(=O)NCCN2CCOCC2)cc1)c1cc(OC)c(OC)c(-c2cccs2)c1` [Example 50, 4-[2-(3,4-Dimethoxy-5-thien-2-yl-phenyl)-acryloyl]-N-(2-morpholin-4-yl-ethyl)-benzamide] registered a melting point of 84 to 87 °C. Besides, the pIC50 with VCAM-1 was greater than 5.52.

Regarding `C=C(C(=O)c1ccc(Nc2ncccc2C(=O)OCC)cc1)c1cc(-c2cccs2)ccc1OC` [Example 23, 2-{4-[2-(2-Methoxy-5-thien-2-yl-phenyl)-acryloyl]-phenylamino}-nicotinic acid ethyl ester], the melting point lay in the range of 149 to 151 °C. In the data set on VCAM-1, this compound gave a pIC50 greater than 5.52.

With `C=C(C(=O)c1c(OC)cccc1OC)c1cc(-c2cccs2)ccc1OC` [Example 65, 1-(2,6-Dimethoxy-phenyl)-2-(2-methoxy-5-thien-2-yl-phenyl)-propenone], the melting point fell in the range of 162 to 163 °C. The compound further gave a pIC50 in the data set on VCAM-1 greater than 6.00.

`C=C(C(=O)c1c(OC)ccc(-c2cccs2)c1OC)c1cc(C(C)(C)C)c(O)c(C(C)(C)C)c1` [Example 34, 2-(3,5-Di-tert-butyl-4-hydroxy-phenyl)-1-(2,6-dimethoxy-3-thien-2-yl-phenyl)-propenone]: the melting point was 130 to 132.5 °C. Moreover, the pIC50 in the data set on VCAM-1 was less than 5.00.
